Structures can show the parent of a compound that is named as a salt. Non-standard residues stand in square brackets, D forms with d. Residues, ends and D or L forms follow the SMILES beside them. *: point of attachment. Sta = CC(C)C[C@H](N)[C@@H](O)CC(=O)O; Isovaleryl = CC(C)CC(=O)*

In the first assay the test system is hPSC-SCs.
Details: not given
`C[N+]1(CCCCC[N+]2(C)CCCC2)CCCC1.O=C([O-])C(O)C(O)C(=O)O.O=C([O-])C(O)C(O)C(=O)O` [Pentolinium bitartrate] yielded a z.score.t of 0.2038.

Regarding `CC(C)CC(=O)N[C@H](C(=O)N[C@H](C(=O)N[C@@H](CC(C)C)[C@@H](O)CC(=O)N[C@@H](C)C(=O)N[C@@H](CC(C)C)[C@@H](O)CC(=O)O)C(C)C)C(C)C` [Pepstatin A] (Isovaleryl-VV[Sta]A[Sta]-OH), the z.score.t is listed as −1.319. On to `CC(COc1ccccc1)N(CCCl)Cc1ccccc1` (stereo not shown) [Phenoxybenzamine hydrochloride], for which the z.score.t came out at 0.03421. The same measure, in the same setting: the same measure for `CC(N)C(O)c1ccccc1` (stereo not shown) [Phenylpropanolamine hydrochloride]: −0.8304. In the case of `C=C(C)[C@@H]1[C@H]2OC(=O)[C@@H]1[C@]1(O)C[C@H]3O[C@]34C(=O)O[C@H]2[C@]14C` [Picrotoxinin], the z.score.t is reported as 1.281.

For the molecule `CCN1CCCC(OC(=O)C(c2ccccc2)c2ccccc2)C1` (stereo not shown) [Piperidolate hydrochloride], the z.score.t is listed as −1.025.

Consider `COc1cc(/C=C/C(=O)N2CCC=CC2=O)cc(OC)c1OC` [Piperlongumine], for which the z.score.t is listed as −2.024. With `COc1cc([C@@H]2c3cc4c(cc3[C@H](O)[C@H]3COC(=O)[C@H]23)OCO4)cc(OC)c1OC` [Podophyllotoxin], the z.score.t is recorded as −2.152. Take `C[n+]1ccccc1/C=N/O` [Pralidoxime chloride]: the z.score.t is −0.411.

Staying with this assay, now noted: HTS viability of hPSC-SCs in the presence of 30 mM glucose; Prestwick library; Table S4.
`N=C(N)c1ccc(OCCCCCOc2ccc(C(=N)N)cc2)cc1` [Pentamidine isethionate]: the z.score.t was −0.8129. Still for that read-out and setting: with `O=C(O)CN(CCN(CC(=O)O)CC(=O)O)CCN(CC(=O)O)CC(=O)O` [Pentetic acid] the figure was −0.3461. `CC(=O)CCCCn1c(=O)c2c(ncn2C)n(C)c1=O` [Pentoxifylline]: the z.score.t amounted to 1.045. Regarding `C1CCc2nnnn2CC1` [Pentylenetetrazole], the z.score.t is on record as 1.171. With `CCCN1C[C@H](CSC)C[C@@H]2c3cccc4[nH]cc(c34)C[C@H]21` [Pergolide mesylate], the z.score.t is recorded as 0.1298.

For the molecule `C1CCC(C(CC2CCCCN2)C2CCCCC2)CC1` (stereo not shown) [Perhexiline maleate], the z.score.t is reported as −1.682. On the same count and under the same terms, with `CCC[C@H](N[C@@H](C)C(=O)N1[C@H](C(=O)O)C[C@@H]2CCCC[C@@H]21)C(=O)OCC` [Perindopril] the figure was 2.067; with `OCCN1CCN(CCCN2c3ccccc3Sc3ccc(Cl)cc32)CC1` [Perphenazine], −1.746; with `CCOc1ccc(NC(C)=O)cc1` [Phenacetin], 0.8023.

With `Nc1ccc(/N=N/c2ccccc2)c(N)n1` [Phenazopyridine hydrochloride], the z.score.t worked out at 1.999. Same read-out and setting: with `NNCCc1ccccc1` [Phenelzine sulfate] the figure was 0.852; with `CC(Oc1ccccc1)C(=O)N[C@@H]1C(=O)N2[C@@H]1SC(C)(C)[C@@H]2C(=O)O` (stereo partly shown) [Phenethicillin potassium salt], 0.7158.

On to `[H]/N=C(/N)N/C(=N/[H])NCCc1ccccc1` [Phenformin hydrochloride], for which the z.score.t worked out at 0.9109. Regarding `O=C1c2ccccc2C(=O)C1c1ccccc1` [Phenindione], the z.score.t is 0.7312. On the same count and under the same terms, the same measure for `CN(C)CCC(c1ccccc1)c1ccccn1` (stereo not shown) [Pheniramine maleate]: −0.09426; for `CN1C(=O)CC(c2ccccc2)C1=O` (stereo not shown) [Phensuximide]: 1.669. Still for that read-out and setting: the same measure for `Cc1ccc(N(CC2=NCCN2)c2cccc(O)c2)cc1` [Phentolamine hydrochloride]: −0.1241; for `O=C(O)c1ccccc1C(=O)Nc1ccc(S(=O)(=O)Nc2nccs2)cc1` [Phthalylsulfathiazole]: −1.317. With `COc1ccc(C(=O)NCc2cccnc2)cc1C(=O)NCc1cccnc1` [Picotamide monohydrate], the z.score.t is −0.04944. `CC[C@@H]1C(=O)OC[C@@H]1Cc1cncn1C` [Pilocarpine nitrate]: the z.score.t was found to be 1.139. For the molecule `CN1CCC(=C2c3ccccc3Sc3ccccc32)CC1` [Pimethixene maleate], the z.score.t is −1.233. Consider `O=c1[nH]c2ccccc2n1C1CCN(CCCC(c2ccc(F)cc2)c2ccc(F)cc2)CC1` [Pimozide], for which the z.score.t is on record as −1.173.

Consider `CC(N/C(=N\C#N)Nc1ccncc1)C(C)(C)C` (stereo not shown) [Pinacidil], for which the z.score.t was −0.03449. The same measure, in the same setting: the same measure for `CC(C)NCC(O)COc1cccc2[nH]ccc12` (stereo not shown) [Pindolol]: 0.2038; for `CCn1cc(C(=O)O)c(=O)c2cnc(N3CCNCC3)nc21` [Pipemidic acid]: 0.4318. With `CC[N+]1(C)CCCC(OC(=O)C(O)(c2ccccc2)c2ccccc2)C1` (stereo not shown) [Pipenzolate bromide], the z.score.t is reported as 0.4318.

`CC(=O)c1ccc2c(c1)N(CCCN1CCC(CCO)CC1)c1ccccc1S2` [Piperacetazine]: the z.score.t is −1.148. On to `CCN1CCN(C(=O)N[C@@H](C(=O)N[C@@H]2C(=O)N3[C@@H]2SC(C)(C)[C@@H]3C(=O)O)c2ccccc2)C(=O)C1=O` [Piperacillin sodium salt], for which the z.score.t turned out to be 0.8465. With `O=C(/C=C/C=C/c1ccc2c(c1)OCO2)N1CCCCC1` [Piperine], the z.score.t is given as −0.1003. In the case of `NC(=O)CN1CCCC1=O` [Piracetam], the z.score.t is 1.595.

As to `Cc1nc2ccccn2c(=O)c1CCN1CCC(C(=O)c2ccc(F)cc2)CC1` [Pirenperone], the z.score.t is given as −0.07901. As to `CN1CCN(CC(=O)N2c3ccccc3C(=O)Nc3cccnc32)CC1` [Pirenzepine dihydrochloride], the z.score.t is reported as −0.07933. On the same count and under the same terms, the same measure for `NS(=O)(=O)c1cc(C(=O)O)cc(N2CCCC2)c1Oc1ccccc1` [Piretanide]: −0.9376; for `c1cnc(N2CCN(Cc3ccc4c(c3)OCO4)CC2)nc1` [Piribedil hydrochloride]: −1.291. In the case of `CCn1cc(C(=O)O)c(=O)c2cnc(N3CCCC3)nc21` [Piromidic acid], the z.score.t was determined as 0.453.

On to `CN1C(C(=O)Nc2ccccn2)=C(O)c2ccccc2S1(=O)=O` [Piroxicam], for which the z.score.t is on record as −0.4161. With `CC(C)(C)C(=O)OCOC(=O)[C@@H]1N2C(=O)[C@@H](NC(=O)[C@H](N)c3ccccc3)[C@H]2SC1(C)C` [Pivampicillin], the z.score.t was −0.2187. On to `CC(C)(C)C(=O)OCOC(=O)[C@@H]1N2C(=O)[C@@H](/N=C/N3CCCCCC3)[C@H]2SC1(C)C` [Pivmecillinam hydrochloride], for which the z.score.t came out at 0.0827. As for `CC(=O)Nc1ccc(OCC(O)CNC(C)C)cc1` (stereo not shown) [Practolol], the z.score.t is recorded as −0.3112. As to `CCCCOc1ccc(OCCCN2CCOCC2)cc1` [Pramoxine hydrochloride], the z.score.t is on record as −1.058. Still for that read-out and setting: the same measure for `O=C(C1CCCCC1)N1CC(=O)N2CCc3ccccc3C2C1` (stereo not shown) [Praziquantel]: −0.5553.

As for `COc1cc2nc(N3CCN(C(=O)c4ccco4)CC3)nc(N)c2cc1OC` [Prazosin hydrochloride], the z.score.t is −0.496.

`CCOC(=O)O[C@]1(C(=O)COC(=O)CC)CC[C@H]2[C@@H]3CCC4=CC(=O)C=C[C@]4(C)[C@H]3[C@@H](O)C[C@@]21C` [Prednicarbate]: the z.score.t is −0.7266.

The values above are taken from patent publication US20260053861A1, “CELL COMPOSITIONS AND METHODS OF USING THE SAME” (THE REGENTS OF THE UNIVERSITY OF CALIFORNIA, priority 2022, published 2026).
